# Where two headings read alike, the source gives them in different places.
# B1: IL-1: a known inducer of the NF-KB transcription factor (protein, UniProt P01583 113-271, looked up)
# Interleukin-1 alpha: SAPFSFLSNVKYNFMRIIKYEFILNDALNQSIIRANDQYLTAAALHNLDEAVKFDMGAYKSSKDDAKITVILRISKTQLYVTAQDEDQPVLLKEMPEIPKTITGSETNLLFFWETHGTKNYFTSVAHPNLFIATKQDYWVCLAGGPPSITDFQILENQA
# What was measured:
# PC12 cells [1] = conditions: 3 hours, 8 wells
# PC12 cells [2] = assay: cells; conditions: Rattus norvegicus, PC-12, read-out: IC50 (50% inhibitory concentration) for dopamine toxicity to neurites
# [3] = tested on: mouse connective tissue fibroblasts (L-929); assay: High-content screen of drug-induced apoptosis, L-929 cells; assay type: cell-based
# Experimental: Cell preparation. The cells chosen for this study were mouse connective tissue fibroblasts (L-929; ATCC CCL-1) and a highly invasive glioblastoma cell line (SNB-19; ATCC CRL-2219) (Welch et al., In Vitro Cell. Dev. Biol. 31:610, 1995). The day before treatment with an apoptosis inducing drug, 3500 cells were placed into each well of a 96-well plate and incubated overnight at 37° C. in a humidified 5% CO2 atmosphere. The following day, the culture medium was removed from each well and replaced with fresh medium containing various concentrations of paclitaxel (0–50 μM) from a 20 mM stock made in DMSO. The maximal concentration of DMSO used in these experiments was 0.25%. The cells were then incubated for 26 h as above. At the end of the paclitaxel treatment period, each well received fresh medium containing 750 nM MITOTRACKER® Red (Molecular Probes; Eugene, Oreg.) and 3 μg/ml Hoechst 33342 DNA-binding dye (Molecular Probes) and was incubated as above for 20 min. Each well on the plate was then washed with HBSS and fixed with 3.7% formaldehyde in HBSS for 15 min at room temperature. The formaldehyde was washed out with HBSS and the cells were permeabilized for 90 s with 0.5% (v/v) Triton X-100, washed with HBSS, incubated with 2 U ml^−1 BODIPY® FL phallacidin (Molecular Probes) for 30 min, and washed with HBSS. The wells on the plate were then filled with 200 μl HBSS, sealed, and the plate stored at 4° C. if Go necessary.
# (§1) Image acquisition and analysis on the ArrayScan System. The fluorescence intensity of intracellular MITOTRACKER® Red, Hoechst 33342, and BODIPY® FL phallacidin was measured with the cell screening system as described supra. […]
# Calculations and output. A total of 50–250 cells were measured per image field. For each field of cells, the following calculations were performed: (1) The average nuclear area (μm^2) was calculated by dividing the total nuclear area in a field by the number of nuclei detected. (2) The average nuclear perimeter (μm) was calculated by dividing the sum of the perimeters of all nuclei in a field by the number of nuclei detected in that field. […] (3) The average nuclear brightness was calculated by dividing the integrated intensity of the entire field of nuclei by the number of nuclei in that field. […] (4) The average cellular brightness was calculated by dividing the integrated intensity of an entire field of cells stained with MITOTRACKER® dye by the number of nuclei in that field. […] (5) The average cellular brightness was also calculated by dividing the integrated intensity of an entire field of cells stained with BODIPY® FL phallacidin dye by the number of nuclei in that field. […]
# [4] = tested on: glioblastoma cell line (SNB-19); assay: High-content screen of drug-induced apoptosis, SNB-19 cells; assay type: cell-based; conditions: 26 h
# Experimental: Cell preparation. The cells chosen for this study were mouse connective tissue fibroblasts (L-929; ATCC CCL-1) and a highly invasive glioblastoma cell line (SNB-19; ATCC CRL-2219) (Welch et al., In Vitro Cell. Dev. Biol. 31:610, 1995). The day before treatment with an apoptosis inducing drug, 3500 cells were placed into each well of a 96-well plate and incubated overnight at 37° C. in a humidified 5% CO2 atmosphere. The following day, the culture medium was removed from each well and replaced with fresh medium containing various concentrations of paclitaxel (0–50 μM) from a 20 mM stock made in DMSO. The maximal concentration of DMSO used in these experiments was 0.25%. The cells were then incubated for 26 h as above. […]
# as §1
# Calculations and output. A total of 50–250 cells were measured per image field. For each field of cells, the following calculations were performed: (1) The average nuclear area (μm^2) was calculated by dividing the total nuclear area in a field by the number of nuclei detected. (2) The average nuclear perimeter (μm) was calculated by dividing the sum of the perimeters of all nuclei in a field by the number of nuclei detected in that field. […]
# [5] = tested on: NF-KB transcription factor; assay: NF-KB cytoplasm to nucleus translocation screen (NucCyt Difference); assay type: cell-based; conditions: human cell line, wells titrated with IL-1; FIG. 16
# Experimental: The distribution of the transcription factor is determined by labeling the nuclei with a DNA specific fluorophore like […] and the transcription factor with a specific fluorescent antibody. After autofocusing on the Hoechst labeled nuclei, an image of the nuclei is acquired in the cell-based screening system and used to create a mask by one of several optional thresholding methods, as described supra. The morphological descriptors of the regions defined by the mask are compared with the user defined parameters and valid nuclear masks are identified and used with the following method to extract transcription factor distributions. Each valid nuclear mask is eroded to define a slightly smaller nuclear region. The original nuclear mask is then dilated in two steps to define a ring shaped region around the nucleus, which represents a cytoplasmic region. The average antibody fluorescence in each of these two regions is determined, and the difference between these averages is defined as the NucCyt Difference. […] Using these two sampling regions, data on nuclear translocation can be automatically analyzed by the cell-based screening system on a cell by cell basis. […]
molecule,measurement,setting,value
NCCc1ccc(O)c(O)c1 [dopamine],Neurite Outgrowth Index (mean +/− standard deviation),PC12 cells [1]; dopamine 0.05 mM,43 +/− 4%
same,Neurite Outgrowth Index (mean +/− standard deviation),PC12 cells [1]; dopamine 0.1 mM,37 +/− 3%
same,Neurite Outgrowth Index (mean +/− standard deviation),PC12 cells [1]; dopamine 0.2 mM,37 +/− 3%
same,Neurite Outgrowth Index (mean +/− standard deviation),PC12 cells [1]; dopamine 0.4 mM,25 +/− 3%
same,Neurite Outgrowth Index (mean +/− standard deviation),PC12 cells [1]; dopamine 0.8 mM,17 +/− 2%
same,Neurite Outgrowth Index (mean +/− standard deviation),PC12 cells [1]; dopamine 1.6 mM,11 +/− 2%
same,IC50,PC12 cells [2],460 µM
CC(=O)O[C@H]1C(=O)[C@@]2(C)[C@H]([C@H](OC(=O)c3ccccc3)[C@]3(O)C[C@H](OC(=O)[C@H](O)[C@@H](NC(=O)c4ccccc4)c4ccccc4)C(C)=C1C3(C)C)[C@]1(OC(C)=O)CO[C@@H]1C[C@@H]2O [paclitaxel],Concentration giving maximal response in many parameters,"[3]; L-929 cells, 26 h",5 µM
same,Mitochondrial potential,"[3]; L-929 cells, all concentrations tested (0–50 μM)",did not show a sharp decrease in mitochondrial potential
same,Nuclear morphology,"[3]; L-929 cells, increasing amounts, 26 h, FIG. 24",caused nuclei to enlarge and fragment
same,Dose for maximal response in L-929 relative to SNB-19 cells,[3]; L-929 versus SNB-19,500 fold
same,"Concentration at which area, brightness and fragmentation of the nucleus and actin polymerization reached a maximum value",[4],10 nM
same,Concentration at which mitochondrial potential was minimal,[4],10 nM
B1,NucCyt Difference (NF-KB nuclear translocation) versus amount of agonist,[5],strongly correlated with the amount of agonist added to the wells
